Results reported in BindingDB's records for doi:10.1021/jm7011613 (Abbott Laboratories, 2008).
pEC50: −log10 of the molar value.

These compounds were tested against Cannabinoid receptor 2 (Homo sapiens, UniProt P34972) (assay: Radioligand Binding Assay).
Protocol: IC50 values for test compounds were determined from nonlinear regression analysis of data collected from ligand binding experiments. The inhibition constant (Ki) was calculated from IC50 value by the Cheng and Prusoff equation.

Cannabinoid receptor 2, sequence (P34972 whole entry): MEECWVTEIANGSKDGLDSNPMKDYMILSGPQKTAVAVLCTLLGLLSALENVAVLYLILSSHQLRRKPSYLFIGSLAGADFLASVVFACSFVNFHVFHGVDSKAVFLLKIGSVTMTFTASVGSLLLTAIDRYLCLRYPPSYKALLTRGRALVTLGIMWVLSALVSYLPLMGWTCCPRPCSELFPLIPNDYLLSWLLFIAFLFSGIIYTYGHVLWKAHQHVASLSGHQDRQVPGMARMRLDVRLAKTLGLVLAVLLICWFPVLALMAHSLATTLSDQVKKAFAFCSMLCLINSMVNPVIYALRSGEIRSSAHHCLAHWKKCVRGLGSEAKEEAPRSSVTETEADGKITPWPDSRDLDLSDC

Structure (SMILES) | pEC50
CC1(C)C(C(=O)c2cn(CC3CCOCC3)c3cccc(O)c23)C1(C)C [1-(oxan-4-ylmethyl)-3-[(2,2,3,3-tetramethylcyclopropyl)carbonyl]-1H-indol-4-ol] | 7.14
CC1(C)C(C(=O)c2cn(CC3CCOCC3)c3ccc(N)cc23)C1(C)C [1-(oxan-4-ylmethyl)-3-[(2,2,3,3-tetramethylcyclopropyl)carbonyl]-1H-indol-5-amine] | 7.81
CC1(C)C(C(=O)c2cn(CC3CCOCC3)c3ccc(O)cc23)C1(C)C [1-(oxan-4-ylmethyl)-3-[(2,2,3,3-tetramethylcyclopropyl)carbonyl]-1H-indol-5-ol] | 7.96
CC1(C)C(C(=O)c2cn(CC3CCOCC3)c3cc(O)ccc23)C1(C)C [1-(oxan-4-ylmethyl)-3-[(2,2,3,3-tetramethylcyclopropyl)carbonyl]-1H-indol-6-ol] | 7.73
CC1(C)C(C(=O)c2cn(CC3CCOCC3)c3cc(O)c(O)cc23)C1(C)C [1-(oxan-4-ylmethyl)-3-[(2,2,3,3-tetramethylcyclopropyl)carbonyl]-1H-indole-5,6-diol] | 7.55
CC1(C)C(C(=O)c2cn(CC3CCOCC3)c3ccc(C#N)cc23)C1(C)C [1-(oxan-4-ylmethyl)-3-[(2,2,3,3-tetramethylcyclopropyl)carbonyl]-1H-indole-5-carbonitrile] | 6.58
CC1(C)C(C(=O)c2cn(CC3CCOCC3)c3cc(C#N)ccc23)C1(C)C [1-(oxan-4-ylmethyl)-3-[(2,2,3,3-tetramethylcyclopropyl)carbonyl]-1H-indole-6-carbonitrile] | 7.28
CC1(C)C(C(=O)c2cn(CC3CCOCC3)c3ccccc23)C1(C)C [1-(oxan-4-ylmethyl)-3-[(2,2,3,3-tetramethylcyclopropyl)carbonyl]-1H-indole] | 8.02
CC1(C)C(C(=O)c2cn(CCN3CCOCC3)c3cccc(N)c23)C1(C)C [1-[2-(morpholin-4-yl)ethyl]-3-[(2,2,3,3-tetramethylcyclopropyl)carbonyl]-1H-indol-4-amine] | 6.67
CC1(C)C(C(=O)c2cn(CC3CCOCC3)c3c(F)c(F)c(F)c(F)c23)C1(C)C [4,5,6,7-tetrafluoro-1-(oxan-4-ylmethyl)-3-[(2,2,3,3-tetramethylcyclopropyl)carbonyl]-1H-indole] | 7.40
Cc1c(C(=O)C2C(C)(C)C2(C)C)c2ccccc2n1CCN1CCOCC1 [4-(2-{2-methyl-3-[(2,2,3,3-tetramethylcyclopropyl)carbonyl]-1H-indol-1-yl}ethyl)morpholine] | 6.44
CC1(C)C(C(=O)c2cn(CCN3CCOCC3)c3ccccc23)C1(C)C [4-(2-{3-[(2,2,3,3-tetramethylcyclopropyl)carbonyl]-1H-indol-1-yl}ethyl)morpholine] | 7.76
CC1(C)C(C(=O)c2cn(CC3CCOCC3)c3cccc(OCc4ccccc4)c23)C1(C)C [4-(benzyloxy)-1-(oxan-4-ylmethyl)-3-[(2,2,3,3-tetramethylcyclopropyl)carbonyl]-1H-indole] | 6.30
COc1cccc2c1c(C(=O)C1C(C)(C)C1(C)C)cn2CC1CCOCC1 [4-methoxy-1-(oxan-4-ylmethyl)-3-[(2,2,3,3-tetramethylcyclopropyl)carbonyl]-1H-indole] | 7.04
COCc1ccc2c(c1)c(C(=O)C1C(C)(C)C1(C)C)cn2CC1CCOCC1 [5-(methoxymethyl)-1-(oxan-4-ylmethyl)-3-[(2,2,3,3-tetramethylcyclopropyl)carbonyl]-1H-indole] | 7.13
CC1(C)C(C(=O)c2cn(CC3CCOCC3)c3cc4c(cc23)OCO4)C1(C)C [5-(oxan-4-ylmethyl)-7-[(2,2,3,3-tetramethylcyclopropyl)carbonyl]-2H,5H-[1,3]dioxolo[4,5-f]indole] | 7.53
CC1(C)C(C(=O)c2cn(CC3CCOCC3)c3ccc(Br)cc23)C1(C)C [5-bromo-1-(oxan-4-ylmethyl)-3-[(2,2,3,3-tetramethylcyclopropyl)carbonyl]-1H-indole] | 6.41
CC1(C)C(C(=O)c2cn(CC3CCOCC3)c3ccc(Cl)cc23)C1(C)C [5-chloro-1-(oxan-4-ylmethyl)-3-[(2,2,3,3-tetramethylcyclopropyl)carbonyl]-1H-indole] | 6.88
CC1(C)C(C(=O)c2cn(CC3CCOCC3)c3ccc(F)cc23)C1(C)C [5-fluoro-1-(oxan-4-ylmethyl)-3-[(2,2,3,3-tetramethylcyclopropyl)carbonyl]-1H-indole] | 7.44
COc1ccc2c(c1)c(C(=O)C1C(C)(C)C1(C)C)cn2CC1CCOCC1 [5-methoxy-1-(oxan-4-ylmethyl)-3-[(2,2,3,3-tetramethylcyclopropyl)carbonyl]-1H-indole] | 7.00
CC1(C)C(C(=O)c2cn(CC3CCOCC3)c3cc(OCc4ccccc4)ccc23)C1(C)C [6-(benzyloxy)-1-(oxan-4-ylmethyl)-3-[(2,2,3,3-tetramethylcyclopropyl)carbonyl]-1H-indole] | 6.78
CC1(C)C(C(=O)c2cn(CC3CCOCC3)c3cc(Cl)ccc23)C1(C)C [6-chloro-1-(oxan-4-ylmethyl)-3-[(2,2,3,3-tetramethylcyclopropyl)carbonyl]-1H-indole] | 7.68
CC1(C)C(C(=O)c2cn(CC3CCOCC3)c3ccc(CO)cc23)C1(C)C [[1-(oxan-4-ylmethyl)-3-[(2,2,3,3-tetramethylcyclopropyl)carbonyl]-1H-indol-5-yl]methanol] | 7.01
